# Measured values taken from US20170327471A1, “Aryl sulphide and aryl sulphoxide derivatives having C-C-attached uracils as pesticides” (BAYER CROPSCIENCE AKTIENGESELLSCHAFT, priority 2014, published 2017).
# Where two headings read alike, the source gives them in different places.
# Key:
# [1] = logP by reversed-phase HPLC (EEC Directive 79/831 Annex V.A8); assay type: physicochemical; settings: for chromatographic logP: reversed-phase C18 HPLC column
# Experimental: The logP values were determined in accordance with EEC Directive 79/831 Annex V.A8 by HPLC (High Performance Liquid Chromatography) using reversed-phase columns (C 18) by the following methods:
# ^[a] The LC-MS determination in the acidic range was effected at pH 2.7 with 0.1% aqueous formic acid and acetonitrile (contains 0.1% formic acid) as eluents; linear gradient from 10% acetonitrile to 95% acetonitrile. Called logP (HCOOH) in the table.
# ^[b] LC-MS determination in the neutral range was effected at pH 7.8 with 0.001 molar aqueous ammonium hydrogencarbonate solution and acetonitrile as eluents; linear gradient from 10% acetonitrile to 95% acetonitrile. Called logP (neutral) in the table.
# Calibration was effected with unbranched alkan-2-ones (having 3 to 16 carbon atoms) with known logP values (logP values determined on the basis of the retention times by linear interpolation between two successive alkanones).
# [2] = system: Boophilus microplus; test: Boophilus microplus injection test; assay type: in vivo; settings: application rate, injection into engorged adult female cattle ticks, after 7 days
# Experimental: 1. Boophilus microplus—Injection Test Solvent: dimethyl sulphoxide
# To produce a suitable preparation of active compound, 10 mg of active compound are mixed with 0.5 ml of solvent and the concentrate is diluted with solvent to the desired concentration.
# 1 μl of the active compound solution is injected into the abdomen of 5 engorged adult female cattle ticks (Boophilus microplus). The animals are transferred into dishes and kept in a climate-controlled room.
# Efficacy is assessed after 7 days by laying of fertile eggs. Eggs which are not visibly fertile are stored in a climate-controlled cabinet until the larvae hatch after about 42 days. An efficacy of 100% means that none of the ticks has laid any fertile eggs; 0% means that all the eggs are fertile.
# [3] = system: Tetranychus urticae; test: Tetranychus urticae spray test, OP-resistant (bean leaf discs); assay type: in vivo; settings: application rate 500 g/ha, after 6 days
# Experimental: 4. Tetranychus urticae—Spray Test, OP-Resistant Solvent: 78.0 parts by weight of acetone • • 1.5 parts by weight of dimethylformamide Emulsifier: alkylaryl polyglycol ether
# (§1) To produce a suitable preparation of active compound, 1 part by weight of active compound is dissolved using the stated parts by weight of solvent and made up with water containing an emulsifier concentration of 1000 ppm until the desired concentration is attained. To produce further test concentrations, the preparation is diluted with emulsifier-containing water.
# Discs of bean leaves (Phaseolus vulgaris) infested with all stages of the greenhouse red spider mite (Tetranychus urticae) are sprayed with an active compound preparation of the desired concentration.
# After 6 days, the efficacy in % is determined. 100% means that all the spider mites have been killed; 0% means that none of the spider mites have been killed.
# [4] = system: Tetranychus urticae; test: Tetranychus urticae spray test, OP-resistant (bean plants); assay type: in vivo; settings: application rate 20 ppm, after 7 days
# Experimental: 5. Tetranychus urticae-Spray Test, OP-Resistant Solvent: 7 parts by weight of dimethylformamide Emulsifier: alkylaryl polyglycol ether
# as §1, with “water. If the addition of ammonium salts or/and penetrants is required, these are each added in a concentration of 1000 ppm to the preparation solution.” for “water.”
# Bean plants (Phaseolus vulgaris) heavily infested by all stages of the greenhouse red spider mite (Tetranychus urticae) are sprayed with an active compound preparation of the desired concentration.
# After 7 days, the efficacy in % is determined. 100% means that all the spider mites have been killed; 0% means that none of the spider mites have been killed.
# [5] = system: Tetranychus urticae; test: Tetranychus urticae drench test, OP-resistant; assay type: in vivo; settings: application rate 4 ppm, after 14 days, bean plants in soil
# Experimental: 6. Tetranychus urticae—Drench Test, OP-Resistant Solvent: 7 parts by weight of dimethylformamide Emulsifier: 2 parts by weight of alkylaryl polyglycol ether
# To produce a suitable preparation of active compound, 1 part by weight of active compound is mixed with the stated amounts of solvent and emulsifier, and the concentrate is diluted with water to the desired concentration, where the volume of soil to be drenched has to be taken into account. Here, it has to be made sure that a concentration of 40 ppm of emulsifier in the soil is not exceeded. To produce further test concentrations, the mixture is diluted with water.
# Bean plants (Phaseolus vulgaris) in pots filled with soil, which plants are heavily infested by all stages of the greenhouse red spider mite (Tetranychus urticae), are watered with an active compound preparation of the desired concentration.
# After 14 days, the efficacy in % is assessed. 100% means that all spider mites have been killed; 0% means that none of the spider mites have been killed.
# [6] = system: Phaedon cochleariae; test: Phaedon cochleariae spray test; assay type: in vivo; settings: application rate 500 g/ha, after 7 days, Chinese cabbage leaf discs
# Experimental: 3. Phaedon cochleariae—Spray Test Solvent: 78.0 parts by weight of acetone • • 1.5 parts by weight of dimethylformamide Emulsifier: alkylaryl polyglycol ether
# as §1
# After 7 days, the efficacy in % is determined. 100% means that all the beetle larvae have been killed; 0% means that no beetle larvae have been killed.
# [7] = system: Meloidogyne incognita; test: Meloidogyne incognita test (sand, lettuce, solvent acetone); assay type: in vivo; settings: application rate 20 ppm, after 14 days, lettuce in sand
# Experimental: 2. Meloidogyne incognita Test Solvent: 125.0 parts by weight of acetone To produce a suitable preparation of active compound, 1 part by weight of active compound is mixed with the stated amount of solvent and the concentrate is diluted with water to the desired concentration. Vessels are filled with sand, active compound solution, an egg/larvae suspension of the southern root-knot nematode (Meloidogyne incognita) and lettuce seeds. The lettuce seeds germinate and the plants develop. The galls develop on the roots. After 14 days, the nematicidal efficacy in % is determined by the formation of galls. 100% means that no galls were found; 0% means that the number of galls on the treated plants corresponds to the untreated control.
# [8] = acidic range, pH 2.7, 0.1% aqueous formic acid/acetonitrile
# [9] = neutral range, pH 7.8, 0.001 molar aqueous ammonium hydrogencarbonate/acetonitrile
# [10] = acidic range, pH 2.7, 0.1% aqueous formic acid/acetonitrile, read-out: logP (HCOOH) = logP[a]
# [11] = neutral range, pH 7.8, 0.001 molar aqueous ammonium hydrogencarbonate/acetonitrile, read-out: logP (neutral) = logP[b]
Compound,"logP (HCOOH) = logP[a] [1, 8]","logP (neutral) = logP[b] [1, 9]","chromatographic logP [1, 10]",efficacy (spider mites killed) [3],other results
Cc1cc(F)c(-c2cc(=O)n(CC(F)(F)F)c(=S)n2C)cc1SCC(F)(F)F [Example I-15],4.34,,,90%,efficacy (beetle larvae killed) [6]: 100%; efficacy (spider mites killed) [4]: 100%; efficacy (spider mites killed) [5]: 100%
"CCn1c(=O)c(C)c(Cl)n(C)c1=O [II-02, 6-chloro-3-ethyl-1,5-dimethylpyrimidine-2,4(1H,3H)-dione]",,,1.59,,
"CCOC(=O)CC(=O)c1cc(SCC(F)(F)F)c(C)cc1F [VI-01, ethyl 3-{2-fluoro-4-methyl-5-[(2,2,2-trifluoroethyl)sulphanyl]phenyl}-3-oxopropanoate]",,,3.57,,"chromatographic logP [1, 11]: 3.59"
"CCn1c(=O)c(F)c(Cl)n(C)c1=O [II-01, 6-chloro-3-ethyl-5-fluoro-1-methylpyrimidine-2,4(1H,3H)-dione]",,,1.31,,
CCCn1c(-c2cc(SCC(F)(F)F)c(C)cc2F)cc(=O)n(CCC)c1=O [Example I-5],4.26,4.16,,90%,
CCn1c(-c2cc(SCC(F)(F)F)c(C)cc2F)cc(=O)n(CC)c1=O [Example I-7],3.54,3.47,,90%,efficacy (spider mites killed) [4]: 100%
Cc1cc(F)c(-c2cc(=O)n(C(C)C)c(=O)n2C(C)C)cc1SCC(F)(F)F [Example I-6],4.52,4.42,,100%,
Cc1cc(C)c(-c2cc(=O)n(C)c(=O)n2C)cc1SCC(F)(F)F [Example I-4],,,2.98,,
"CCn1c(=O)c(F)c(-c2cc(SCC(F)(F)F)c(C)cc2F)n(C)c1=O [Example I-3, 3-Ethyl-5-fluoro-6-{2-fluoro-4-methyl-5-[(2,2,2-trifluoroethyl)-sulphanyl]phenyl}-1-methylpyrimidine-2,4(1H,3H)-dione]",,,3.32,,"chromatographic logP [1, 11]: 3.42"

# The next lines start with results.
"logP (HCOOH) = logP[a] [1, 8]","logP (neutral) = logP[b] [1, 9]","chromatographic logP [1, 10]",Compound,efficacy (spider mites killed) [3],other results
2.72,,,CCn1c(=O)[nH]c(-c2cc(SCC(F)(F)F)c(C)cc2F)c(F)c1=O [Example I-8],,
2.37,2.28,,CCn1c(-c2cc([S+]([O-])CC(F)(F)F)c(C)cc2F)cc(=O)n(CC)c1=O (stereo not drawn) [Example I-10],100%,efficacy (no fertile eggs laid) [2]: 100%; efficacy (spider mites killed) [4]: 100%; efficacy (spider mites killed) [5]: 95%
,,3.15,"Cc1cc(F)c(-c2c(Cl)c(=O)n(C)c(=O)n2C)cc1SCC(F)(F)F [Example I-16, 5-Chloro-6-{2-fluoro-4-methyl-5-[(2,2,2-trifluoroethyl)sulphanyl]phenyl}-1,3-dimethylpyrimidine-2,4(1H,3H)-dione]",90%,
1.41,1.43,,Cc1cc(F)c(-c2cc(=O)n(C)c(=O)[nH]2)cc1[S+]([O-])CC(F)(F)F (stereo not drawn) [Example I-17],,
2.20,2.19,,CCn1c(=O)c(F)c(-c2cc([S+]([O-])CC(F)(F)F)c(C)cc2F)n(C)c1=O (stereo not drawn) [Example I-11],100%,efficacy (no fertile eggs laid) [2]: 100%
,,2.86,"Cc1cc(F)c(-c2cc(=O)n(C)c(=O)n2C)cc1SCC(F)(F)F [Example I-2, 6-{2-Fluoro-4-methyl-5-[(2,2,2-trifluoroethyl)sulphanyl]phenyl}-1,3-dimethylpyrimidine-2,4(1H,3H)-dione]",100%,"chromatographic logP [1, 11]: 2.74; efficacy (no fertile eggs laid) [2]: 100%; nematicidal efficacy (formation of galls) [7]: 90%; efficacy (beetle larvae killed) [6]: 83%; efficacy (spider mites killed) [4]: 100%; efficacy (spider mites killed) [5]: 99%"
1.89,1.82,,Cc1cc(C)c([S+]([O-])CC(F)(F)F)cc1-c1cc(=O)n(C)c(=O)n1C (stereo not drawn) [Example I-12],100%,efficacy (no fertile eggs laid) [2]: 100%
,,2.34,"Cc1cc(F)c(-c2cc(=O)[nH]c(=S)[nH]2)cc1SCC(F)(F)F [Example I-14, 6-{2-Fluoro-4-methyl-5-[(2,2,2-trifluoroethyl)sulphanyl]phenyl}-2-thioxo-2,3-dihydropyrimidin-4(1H)-one]",,"chromatographic logP [1, 11]: 1.54"
3.19,3.10,,Cc1cc(F)c(-c2cc(=O)n(C(C)C)c(=O)n2C(C)C)cc1[S+]([O-])CC(F)(F)F (stereo not drawn) [Example I-9],100%,efficacy (no fertile eggs laid) [2]: 100%
,,2.38,"Cc1cc(F)c(-c2cc(=O)n(C)c(=O)[nH]2)cc1SCC(F)(F)F [Example I-13, 6-{2-Fluoro-4-methyl-5-[(2,2,2-trifluoroethyl)sulphanyl]phenyl}-3-methylpyrimidine-2,4(1H,3H)-dione]",,"chromatographic logP [1, 11]: 2.25"
